Starred links: 1 amine or outer side, 2 acyl side, 3 side chain; linkers in the order of their positions; H or OH if unused. Non-standard residues stand in square brackets, D forms with d. Residues, ends and D or L forms follow the SMILES beside them. X1 = Nc1ncnc2c1ncn2[C@@H]1O[C@H](COP(=O)(O)OP(=O)(O)OC[C@H]2O[C@H](n3cncc3C[C@H](N[*:1])C(=O)[*:2])[C@H](O)[C@@H]2O)[C@@H](O)[C@H]1O
Assays:
[1] = quoted without reference; cited from earlier work
[2] = Chemical stability assay (LC-MS based) under acidic, basic and nucleophilic conditions; format: physicochemical
Source text: Having prepared ADPr‐His peptides 26–28, we tested their stability under basic and acidic conditions in an LC–MS‐based assay to evaluate their sensitivity for future synthetic and biochemical studies. A selected set of chemically diverse conditions (aqueous acid, aqueous base and a neutral nucleophile) was probed because these are commonly applied in proteomic studies to identify ADP‐ribosylation sites[22] in proteins or during sample preparation.[14, 28] Aqueous solutions of the ADPr peptides with a final concentration of 0.1 M TFA, 0.1 M NaOH or 0.5 M NH2OH were prepared and shaken for 24 h at room temperature. […] In contrast, the NaOH treatment led to some conversion of the N(τ)‐ribosylated histidines 26 and 27 into products with an identical mass (approximately 7 and 11 %, respectively), indicating a slow epimerization of the modified histidine residue in N(τ)‐ribosyl peptides. […]
Figure 5 A) Chemical stability of peptide 28 under basic conditions (NaOH, 0.1 M). […] Peptide degradation was quantified by analyzing the UV‐trace (260 nm) using Xcalibur software. […] Enzymatic turnover of the various peptides was assessed by monitoring AMP release directly (NudT16) or converting released ADPr via NudT5 to AMP. AMP was measured using the AMP‐Glo assay (Promega). Samples are background corrected and normalized to NudT16 activity The data represents mean values±SD measured in triplicates. […]

c1c[nH]nn1 [1,2,3‐triazole]
pKa [1]: 9.4

CC(C)C[C@H](NC(=O)CNC(=O)[C@H](C)NC(=O)CNC(=O)[C@H](Cc1cncn1[C@H]1O[C@H](COP(=O)(O)OP(=O)(O)OC[C@H]2O[C@@H](n3cnc4c(N)ncnc43)[C@H](O)[C@@H]2O)[C@@H](O)[C@H]1O)NC(=O)[C@H](Cc1ccccc1)NC(=O)[C@@H](N)[C@@H](C)O)C(=O)N[C@H](C(=O)N[C@H](C(=O)N1CCC[C@H]1C(=O)N[C@H](C(=O)N[C@@H](CC(=O)O)C(=O)N[C@@H](CCCCN)C(=O)O)C(C)C)C(C)C)C(C)C [compound 28] (H-TF[X1]GAGLVVPVDK-OH)
ADPr-peptide remaining in its original form ([2]; 0.1 M NaOH, after 24 h, LC-MS UV-trace 260 nm): approximately 60% | degradation of the pyrophosphate linkage ([2]; alkaline treatment (0.1 M NaOH), after a week, LC-MS): no degradation of the pyrophosphate linkage was observed
